Results from US20240173353A1, “UNIVERSAL CHIMERIC ANTIGEN RECEPTOR T-CELL AND APPLICATION THEREOF” (SHANGHAI IASO BIOTECHNOLOGY CO., LTD., priority 2021, published 2024).
Read-outs that look alike come from different tables or passages of the source.

Experiments:
[1] = system: CD19/BCMA bispecific CAR-T cells; assay: CD107a translocation of CD19/BCMA bispecific CAR-T cells; type: cell-based, human; conditions: CAR-T cells with LCK-T316I mutation, 100 nM dasatinib 12 hr, U266B1 and Raji
Excerpt: The inventors edited the prepared CD19/BCMA dual-target CAR-T by electroporation with the CBE3 protein, the RNP complexes (18 nt and 21 nt) of CBE3 and LCK-sgRNA12, and the RNP complexes (18 nt and 21 nt) of CBE3 and LCK-sgRNA16 respectively, to achieve three different groups of editing treatments. […] These target cells include U266B1 (BCMA positive), Raji (CD19 positive), K562 (negative control), allogeneic T cells (negative control) and blank Buffer control (negative control).

[2] = system: normal human T lymphocytes; conditions: in vitro; cited from earlier work
T cells = assay: UCAR-T preparation process with dasatinib added after editing; type: cell-based, human; conditions: experimental group, 100 nM DS added after editing
Protocol: The inventors isolated CD3-positive T cells from PBMCs from three different donors using PanT kits, knocked out the B2M and TRAC genes, and performed LCK-T316I editing on the cells. Then the cells were divided into two portions, to one portion, 100 nM DS was added (experimental group), and to the other portion, a corresponding amount of DMSO was added as a control (control group). After 2 hr, to the experimental group and the control group, T cell activators (CD2/CD3/CD28, 25 ul/1M/mL) were added. After 48 hr of activation, the cells were infected with the anti-CD19 CAR molecule through lentivirus infection, and the medium was replaced 24 hr after the virus infection, and DS or DMSO was removed at the same time.

CD5-UCAR-T cells = conditions: reduced to 0 nM, Jurkat 4 hr
Protocol: Subsequently, they were treated overnight with dasatinib at a concentration of 50 nM or 25 nM, respectively. […] After 4 hr of co-incubation, CD107a release in CD8 and CAR double-positive cells was detected.
After 4 hr of co-incubation, CD107a release from CD8/CAR double-positive cells was detected.

anti-BCMA CAR-T cells = assay: Luciferase killing assay of anti-BCMA CAR-T on luciferase-positive target cells; conditions: CBE3 and CBE3+sg12 groups, 100 nM dasatinib 12 hr, effector-to-target 1:1, 24 hr

Cc1nc(Nc2ncc(C(=O)Nc3c(C)cccc3Cl)s2)cc(N2CCN(CCO)CC2)n1 [dasatinib]
CD107a positive rate [1]: above 50% | viability of T cells [2]: will not affect the viability of T cells | percentage of B2M and TRAC double knockout (T cells): more than 50% | positive CD107a release (CD5-UCAR-T cells; CD5-CART, repeat, 50 nM pretreatment): 12.1% | positive CD107a release (CD5-UCAR-T cells; sg12 control CD5-UCART, 50 nM pretreatment overnight): 12% | positive CD107a release (CD5-UCAR-T cells; sg16 (LCK-T316I) CD5-UCART, 50 nM pretreatment): 16% | cytotoxicity of anti-BCMA CAR-T (luciferase value of RPMI-8226) (anti-BCMA CAR-T cells): significantly inhibited
